Reference: PMC3618506 (Nature, 2013)

T1: mCRY2-PHR (Mus musculus, UniProt Q9R194)
T1 sequence (Q9R194 1-512): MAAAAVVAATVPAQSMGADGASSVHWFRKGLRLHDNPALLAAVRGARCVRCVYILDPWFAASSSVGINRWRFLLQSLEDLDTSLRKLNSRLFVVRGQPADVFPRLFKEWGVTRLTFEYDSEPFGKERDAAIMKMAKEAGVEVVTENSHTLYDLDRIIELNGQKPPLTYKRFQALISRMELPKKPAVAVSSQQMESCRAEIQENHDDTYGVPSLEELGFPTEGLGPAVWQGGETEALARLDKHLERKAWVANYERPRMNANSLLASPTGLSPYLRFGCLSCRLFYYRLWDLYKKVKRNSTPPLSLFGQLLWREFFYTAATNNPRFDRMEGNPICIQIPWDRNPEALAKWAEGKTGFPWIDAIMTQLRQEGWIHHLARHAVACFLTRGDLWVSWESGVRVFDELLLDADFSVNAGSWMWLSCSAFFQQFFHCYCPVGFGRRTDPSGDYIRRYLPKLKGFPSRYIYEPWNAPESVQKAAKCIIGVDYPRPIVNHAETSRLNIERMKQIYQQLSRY

T2: GST-tagged mCRY2 (1-544) (mouse, UniProt Q9R194 1-544)
T2 sequence: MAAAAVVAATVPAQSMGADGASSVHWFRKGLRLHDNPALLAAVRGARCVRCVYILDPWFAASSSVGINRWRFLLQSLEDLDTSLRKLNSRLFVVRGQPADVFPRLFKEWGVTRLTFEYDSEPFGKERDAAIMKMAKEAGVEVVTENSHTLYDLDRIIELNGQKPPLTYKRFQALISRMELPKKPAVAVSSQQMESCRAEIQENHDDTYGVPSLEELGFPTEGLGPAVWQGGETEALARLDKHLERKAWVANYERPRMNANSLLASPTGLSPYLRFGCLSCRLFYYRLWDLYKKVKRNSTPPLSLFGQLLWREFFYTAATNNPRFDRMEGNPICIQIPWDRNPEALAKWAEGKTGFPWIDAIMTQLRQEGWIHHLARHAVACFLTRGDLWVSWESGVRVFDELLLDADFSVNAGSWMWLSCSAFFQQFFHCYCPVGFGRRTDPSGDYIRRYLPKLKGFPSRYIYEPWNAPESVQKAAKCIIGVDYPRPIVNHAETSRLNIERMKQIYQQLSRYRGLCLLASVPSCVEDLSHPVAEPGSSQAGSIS

B1: Strep-tagged full-length Fbxl3 (natural protein)
chain: MKRGGRDSDRNSSEEGTAEKSKKLRTTNEHSQTCDWGNLLQDIILQVFKYLPLLDRAHASQVCRNWNQVFHMPDLWRCFEFELNQPATSYLKATHPELIKQIIKRHSNHLQYVSFKVDSSKESAEAACDILSQLVNCSLKTLGLISTARPSFMDLPKSHFISALTVVFVNSKSLSSLKIDDTPVDDPSLKVLVANNSDTLKLLKMSSCPHVSPAGILCVADQCHGLRELALNYHLLSDELLLALSSEKHVRLEHLRIDVVSENPGQTHFHTIQKSSWDAFIRHSPKVNLVMYFFLYEEEFDPFFRYEIPATHLYFGRSVSKDVLGRVGMTCPRLVELVVCANGLRPLDEELIRIAERCKNLSAIGLGECEVSCSAFVEFVKMCGGRLSQLSIMEEVLIPDQKYSLEQIHWEVSKHLGRVWFPDMMPTW

What was measured:
mCRY2-PHR = target: T1, mCRY2-PHR; assay: quenching of FAD fluorescence; assay type: binding
GST-tagged mCRY2 (1-544) = target: T2, GST-tagged mCRY2 (1-544); assay: pull-down

Row | Molecule | Kd (mCRY2-PHR) [µM] | binding result (GST-tagged mCRY2 (1-544))
1 | Cc1cc2nc3c(=O)[nH]c(=O)nc-3n(C[C@H](O)[C@H](O)[C@H](O)COP(=O)(O)OP(=O)(O)OC[C@H]3O[C@@H](n4cnc5c(N)ncnc54)[C@H](O)[C@@H]3O)c2cc1C [FAD] | ~40 | 
2 | B1 |  | binds
